Experimental data: the supplement of paper PMC10307832

Key:
Assay in all cases: relative viability (nuclei count vs DMSO), 5 days (fraction); higher = more cells survive
BAY61-3606 + Palbociclib = compound: COC1=C(C=C(C=C1)C2=CC3=NC=CN3C(=N2)NC4=C(C=CC=N4)C(=O)N)OC [BAY61-3606] + CC(=O)c1c(C)c2cnc(Nc3ccc(N4CCNCC4)cn3)nc2n(C2CCCC2)c1=O [Palbociclib] (partner 0.5 µM)
Method in brief: (§1)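 Relative viability equals treated-well nuclei counts divided by vehicle-well nuclei counts. Counts came from 4× images of lung cancer cell lines grown in 1536-well plates for 5 days after pin-tool dosing on the day after seeding. Dosing used one drug alone or a fixed anchor-drug dose plus five library-drug doses (not always all listed) in √10 steps, and values are medians of duplicate plates.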

Doxorubicin + Pemetrexed = compound: COc1cccc2c1C(=O)c1c(O)c3c(c(O)c1C2=O)C[C@@](O)(C(=O)CO)C[C@@H]3O[C@H]1C[C@H](N)[C@H](O)[C@H](C)O1 [Doxorubicin] + Nc1nc2[nH]cc(CCc3ccc(C(=O)N[C@@H](CCC(=O)O)C(=O)O)cc3)c2c(=O)[nH]1 [Pemetrexed] (partner 0.2 µM)
Method in brief: as §1

Doxorubicin + Pictilisib = compound: COc1cccc2c1C(=O)c1c(O)c3c(c(O)c1C2=O)C[C@@](O)(C(=O)CO)C[C@@H]3O[C@H]1C[C@H](N)[C@H](O)[C@H](C)O1 [Doxorubicin] + CS(=O)(=O)N1CCN(Cc2cc3nc(-c4cccc5[nH]ncc45)nc(N4CCOCC4)c3s2)CC1 [Pictilisib] (partner 1 µM)
Method in brief: as §1

BAY61-3606 + Alpelisib = compound: COC1=C(C=C(C=C1)C2=CC3=NC=CN3C(=N2)NC4=C(C=CC=N4)C(=O)N)OC [BAY61-3606] + Cc1nc(NC(=O)N2CCC[C@H]2C(N)=O)sc1-c1ccnc(C(C)(C)C(F)(F)F)c1 [Alpelisib] (partner 2 µM)
Method in brief: as §1

| Cell Line | relative viability (BAY61-3606 + Palbociclib; first compound 0.02 µM) | relative viability (BAY61-3606 + Palbociclib; first compound 0.06325 µM) | relative viability (BAY61-3606 + Palbociclib; first compound 0.2 µM) | relative viability (BAY61-3606 + Palbociclib; first compound 0.6325 µM) | relative viability (BAY61-3606 + Palbociclib; first compound 2 µM) | relative viability (Doxorubicin + Pemetrexed; first compound 0.001 µM) | relative viability (Doxorubicin + Pemetrexed; first compound 0.003162 µM) | relative viability (Doxorubicin + Pemetrexed; first compound 0.01 µM) | relative viability (Doxorubicin + Pemetrexed; first compound 0.03162 µM) | relative viability (Doxorubicin + Pemetrexed; first compound 0.1 µM) | relative viability (Doxorubicin + Pictilisib; first compound 0.001 µM) | relative viability (Doxorubicin + Pictilisib; first compound 0.003162 µM) | relative viability (Doxorubicin + Pictilisib; first compound 0.01 µM) | relative viability (Doxorubicin + Pictilisib; first compound 0.03162 µM) | relative viability (Doxorubicin + Pictilisib; first compound 0.1 µM) | relative viability (BAY61-3606 + Alpelisib; first compound 0.02 µM) | relative viability (BAY61-3606 + Alpelisib; first compound 0.06325 µM) | relative viability (BAY61-3606 + Alpelisib; first compound 0.2 µM) | relative viability (BAY61-3606 + Alpelisib; first compound 0.6325 µM) | relative viability (BAY61-3606 + Alpelisib; first compound 2 µM) |
| --- | --- | --- | --- | --- | --- | --- | --- | --- | --- | --- | --- | --- | --- | --- | --- | --- | --- | --- | --- | --- |
| NCI-H3122 | 0.159 | 0.185 | 0.226 | 0.231 | 0.189 | 0.203 | 0.208 | 0.334 | 0.194 | 0.174 | 0.507 | 0.62 | 0.566 | 0.527 | 0.611 | 0.797 | 0.879 | 0.868 | 0.833 | 0.69 |
| NCI-H2023 | 0.393 | 0.401 | 0.397 | 0.423 | 0.283 | 0.247 | 0.218 | 0.212 | 0.128 | 0.0912 | 0.169 | 0.248 | 0.192 | 0.104 | 0.0731 | 0.614 | 0.607 | 0.604 | 0.6 | 0.471 |
| HCC-15 | 0.803 | 0.673 | 0.708 | 0.768 | 0.601 | 0.239 | 0.215 | 0.228 | 0.205 | 0.205 | 0.663 | 0.759 | 0.614 | 0.467 | 0.478 | 0.836 | 0.94 | 0.929 | 0.862 | 0.768 |
| HCC-78 | 0.438 | 0.431 | 0.486 | 0.44 | 0.522 | 0.946 | 0.889 | 0.927 | 0.909 | 0.888 | 0.208 | 0.216 | 0.219 | 0.196 | 0.0644 | 0.405 | 0.366 | 0.453 | 0.362 | 0.358 |
| COR-L23 | 0.338 | 0.252 | 0.377 | 0.347 | 0.215 | 0.202 | 0.212 | 0.203 | 0.2 | 0.186 | 0.928 | 1.04 | 0.651 | 0.199 | 0.121 | 0.868 | 0.764 | 0.753 | 0.78 | 0.486 |
| HCC-827 | 0.514 | 0.456 | 0.467 | 0.484 | 0.234 | 0.272 | 0.281 | 0.22 | 0.247 | 0.261 | 0.851 | 1.01 | 0.985 | 0.993 | 0.935 | 0.94 | 1.01 | 0.995 | 0.954 | 0.916 |
| NCI-H1355 | 0.444 | 0.404 | 0.398 | 0.454 | 0.335 | 1 | 1.02 | 1 | 1.01 | 1.04 | 0.179 | 0.565 | 0.465 | 0.412 | 0.44 | 0.944 | 0.811 | 0.791 | 0.713 | 0.534 |
| RERF-LC-KJ | 1.03 | 1.2 | 1.03 | 1.18 | 0.924 | 0.458 | 0.496 | 0.418 | 0.39 | 0.382 | 0.531 | 0.54 | 0.595 | 0.501 | 0.48 | 0.957 | 0.751 | 0.765 | 0.853 | 0.629 |
| NCI-H2126 | 0.356 | 0.353 | 0.369 | 0.352 | 0.31 | 0.623 | 0.738 | 0.712 | 0.699 | 0.681 | 0.494 | 0.523 | 0.501 | 0.49 | 0.517 | 0.784 | 0.769 | 0.705 | 0.739 | 0.671 |
| BEN | 0.456 | 0.438 | 0.477 | 0.442 | 0.509 | 0.899 | 0.78 | 0.926 | 0.631 | 0.701 | 0.7 | 0.509 | 0.546 | 0.472 | 0.493 | 1.23 | 0.831 | 1.24 | 1.24 | 0.958 |
| LCLC-97TM1 | 0.241 | 0.222 | 0.281 | 0.218 | 0.301 | 0.188 | 0.179 | 0.179 | 0.17 | 0.181 | 0.145 | 0.24 | 0.225 | 0.158 | 0.187 | 0.232 |  | 0.244 | 0.231 | 0.238 |
| EKVX | 0.405 | 0.45 | 0.385 | 0.496 | 0.45 | 0.336 | 0.404 | 0.426 | 0.45 | 0.257 | 0.453 | 0.444 | 0.399 | 0.434 | 0.429 | 0.916 | 0.886 | 0.89 | 0.981 | 0.744 |
| PC-14 | 0.455 | 0.546 | 0.468 | 0.514 | 0.453 | 0.139 | 0.135 | 0.118 | 0.0995 | 0.0845 | 0.619 | 0.926 | 0.809 | 0.568 | 0.663 | 0.996 | 0.995 | 0.929 | 1.06 | 0.841 |
| NCI-H1651 | 0.558 | 0.511 | 0.513 | 0.573 | 0.523 | 0.591 | 0.628 | 0.604 | 0.57 | 0.588 | 0.608 | 0.437 | 0.412 | 0.138 | 0.107 | 0.991 | 0.964 | 0.938 | 0.967 | 0.738 |
| NCI-H2087 | 0.234 | 0.264 | 0.221 | 0.28 | 0.249 | 0.577 | 0.731 | 0.579 | 0.615 | 0.668 | 0.703 | 0.886 | 0.841 | 0.495 | 0.454 | 1.15 | 1.17 | 1.02 | 1.16 | 0.949 |
